Reference: ChEMBL document CHEMBL1201862, “PubChem BioAssay data set” (2004)
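1) Cells in 96-well plates. 2) Compound, 48 h, 5 concentrations. 3) Linear interpolation between surrounding doses. 4) Unreached endpoint = highest concentration. At the GI50, growth is halved.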 Active and inactive are the calls of the source. No stated cut-off is given here; in the data, active = GI50 up to about 1.1 µM and inactive = higher.

How the values were obtained:
Assay in all cases: DTP human tumour cell line panel, 48 h
[1] = tested on: SNB-75
[2] = tested on: SNB-19
[3] = tested on: IGROV-1
[4] = tested on: SW-620
[5] = tested on: OVCAR-4
[6] = tested on: OVCAR-8
[7] = tested on: KM-20L2
[8] = tested on: K562
[9] = tested on: SN12C
[10] = tested on: RPMI-8226
[11] = tested on: M14
[12] = tested on: LOX IMVI
[13] = tested on: HL-60
[14] = tested on: NCI-H460
[15] = tested on: HOP-62
[16] = tested on: OVCAR-3
[17] = tested on: HCT-116
[18] = tested on: UACC-257
[19] = tested on: HCT-15
[20] = tested on: SF-268
[21] = tested on: SNB-78
[22] = tested on: CCRF-CEM
[23] = tested on: RXF 631
[24] = tested on: SF-539
[25] = tested on: LXFL 529
[26] = tested on: KM12
[27] = tested on: A498
[28] = tested on: SF-295
[29] = tested on: HT-29
[30] = tested on: 786-0
[31] = tested on: DMS-273
[32] = tested on: SK-MEL-28
[33] = tested on: XF498
[34] = tested on: HCC 2998
[35] = tested on: EKVX
[36] = tested on: UACC-62
[37] = tested on: HOP-92
[38] = tested on: MOLT-4
[39] = tested on: U-251
[40] = tested on: NCI-H522
[41] = tested on: SK-MEL-2
[42] = tested on: UO-31
[43] = tested on: Malme-3M
[44] = tested on: DLD-1
[45] = tested on: SK-MEL-5
[46] = tested on: DMS-114
[47] = tested on: OVCAR-5
[48] = tested on: A549
[49] = tested on: TK-10
[50] = tested on: ACHN
[51] = tested on: NCI-H23
[52] = tested on: SK-OV-3
[53] = tested on: COLO 205
[54] = tested on: CAKI-1
[55] = tested on: M19-MEL
[56] = tested on: RXF 393
[57] = tested on: MDA-MB-231
[58] = tested on: MDA-MB-435
[59] = tested on: HOP-18
[60] = tested on: MCF7
[61] = tested on: Hs-578T
[62] = tested on: T47D
[63] = tested on: BT-549
[64] = tested on: NCI-H226
[65] = tested on: SR
[66] = tested on: PC-3
[67] = tested on: NCI/ADR-RES
[68] = tested on: DU-145

Cc1cc2c(c(C(N)=O)c1C)-c1cccc(Cl)c1C2=O
GI50 [1]: 6.7 µM (inactive) | GI50 [2]: 64.1 µM (inactive) | GI50 [3]: > 100 µM (inactive) | GI50 [4]: > 100 µM (inactive) | GI50 [5]: > 100 µM (inactive) | GI50 [6]: > 100 µM (inactive) | GI50 [7]: > 100 µM (inactive) | GI50 [8]: > 100 µM (inactive) | GI50 [9]: > 100 µM (inactive) | GI50 [10]: > 100 µM (inactive) | GI50 [11]: > 100 µM (inactive) | GI50 [12]: > 100 µM (inactive) | GI50 [13]: > 100 µM (inactive) | GI50 [14]: > 100 µM (inactive) | GI50 [15]: > 100 µM (inactive) | GI50 [16]: > 100 µM (inactive) | GI50 [17]: > 100 µM (inactive) | GI50 [18]: > 100 µM (inactive) | GI50 [19]: > 100 µM | GI50 [20]: > 100 µM (inactive) | GI50 [21]: > 100 µM (inactive) | GI50 [22]: > 100 µM (inactive) | GI50 [23]: > 100 µM (inactive) | GI50 [24]: > 100 µM (inactive) | GI50 [25]: > 100 µM (inactive) | GI50 [26]: > 100 µM (inactive) | GI50 [27]: > 100 µM (inactive) | GI50 [28]: > 100 µM (inactive) | GI50 [29]: > 100 µM (inactive) | GI50 [30]: > 100 µM (inactive) | GI50 [31]: > 100 µM (inactive) | GI50 [32]: > 100 µM (inactive) | GI50 [33]: > 100 µM (inactive) | GI50 [34]: > 100 µM (inactive) | GI50 [35]: > 100 µM (inactive) | GI50 [36]: > 100 µM (inactive) | GI50 [37]: > 100 µM (inactive) | GI50 [38]: 57.9 µM (inactive) | GI50 [39]: > 100 µM (inactive) | GI50 [40]: 27 µM (inactive) | GI50 [41]: > 100 µM (inactive) | GI50 [42]: 41.6 µM (inactive) | GI50 [43]: > 100 µM (inactive) | GI50 [44]: > 100 µM (inactive) | GI50 [45]: > 100 µM (inactive) | GI50 [46]: > 100 µM (inactive) | GI50 [47]: > 100 µM (inactive) | GI50 [48]: > 100 µM (inactive) | GI50 [49]: > 100 µM (inactive) | GI50 [50]: > 100 µM (inactive) | GI50 [51]: > 100 µM (inactive) | GI50 [52]: > 100 µM (inactive) | GI50 [53]: > 100 µM (inactive)

O=C(Nc1ccc(Cl)cc1)/C(Cc1cccc[n+]1[O-])=N\Nc1ccc([N+](=O)[O-])cc1[N+](=O)[O-]
GI50 [1]: > 100 µM (inactive) | GI50 [2]: > 100 µM (inactive) | GI50 [3]: > 100 µM (inactive) | GI50 [54]: > 100 µM (inactive) | GI50 [4]: > 100 µM (inactive) | GI50 [5]: > 100 µM (inactive) | GI50 [6]: > 100 µM (inactive) | GI50 [7]: > 100 µM (inactive) | GI50 [8]: > 100 µM (inactive) | GI50 [9]: > 100 µM (inactive) | GI50 [10]: > 100 µM (inactive) | GI50 [11]: > 100 µM (inactive) | GI50 [12]: > 100 µM (inactive) | GI50 [13]: > 100 µM (inactive) | GI50 [14]: > 100 µM (inactive) | GI50 [15]: > 100 µM (inactive) | GI50 [16]: > 100 µM (inactive) | GI50 [17]: > 100 µM (inactive) | GI50 [18]: > 100 µM (inactive) | GI50 [55]: > 100 µM (inactive) | GI50 [19]: > 100 µM | GI50 [20]: > 100 µM (inactive) | GI50 [21]: > 100 µM (inactive) | GI50 [22]: > 100 µM (inactive) | GI50 [23]: > 100 µM (inactive) | GI50 [24]: > 100 µM (inactive) | GI50 [25]: > 100 µM (inactive) | GI50 [26]: > 100 µM (inactive) | GI50 [27]: > 100 µM (inactive) | GI50 [56]: > 100 µM (inactive) | GI50 [28]: > 100 µM (inactive) | GI50 [30]: > 100 µM (inactive) | GI50 [31]: > 100 µM (inactive) | GI50 [32]: > 100 µM (inactive) | GI50 [34]: > 100 µM (inactive) | GI50 [35]: > 100 µM (inactive) | GI50 [36]: > 100 µM (inactive) | GI50 [37]: > 100 µM (inactive) | GI50 [38]: > 100 µM (inactive) | GI50 [39]: > 100 µM (inactive) | GI50 [40]: > 100 µM (inactive) | GI50 [41]: > 100 µM (inactive) | GI50 [42]: > 100 µM (inactive) | GI50 [43]: > 100 µM (inactive) | GI50 [44]: > 100 µM (inactive) | GI50 [45]: > 100 µM (inactive) | GI50 [46]: > 100 µM (inactive) | GI50 [47]: > 100 µM (inactive) | GI50 [48]: > 100 µM (inactive) | GI50 [49]: > 100 µM (inactive) | GI50 [50]: > 100 µM (inactive) | GI50 [51]: > 100 µM (inactive) | GI50 [52]: > 100 µM (inactive) | GI50 [53]: > 100 µM (inactive)

CN(Cc1cnc2nc(N)nc(N)c2n1)c1ccc(C(=O)N[C@@H](CCC(=O)O)C(=O)O)cc1 [METHOTREXATE]
GI50 [1]: 21.7 µM (inactive) | GI50 [2]: 0.59 µM (active) | GI50 [3]: 0.0908 µM (active) | GI50 [54]: 0.0614 µM (active) | GI50 [4]: 0.0388 µM (active) | GI50 [5]: 59.6 µM (inactive) | GI50 [6]: 0.0292 µM (active) | GI50 [7]: 0.044 µM (active) | GI50 [8]: 0.0285 µM (active) | GI50 [9]: 0.0321 µM (active) | GI50 [10]: 0.0661 µM (active) | GI50 [11]: 0.0334 µM (active) | GI50 [57]: 38.7 µM (inactive) | GI50 [12]: 0.0274 µM (active) | GI50 [13]: 0.043 µM (active) | GI50 [14]: 0.028 µM (active) | GI50 [15]: 0.0403 µM (active) | GI50 [16]: 0.433 µM (active) | GI50 [17]: 0.0347 µM (active) | GI50 [18]: 0.836 µM (active) | GI50 [58]: 0.0341 µM (active) | GI50 [55]: 0.424 µM (active) | GI50 [19]: 0.0343 µM | GI50 [20]: 0.0409 µM (active) | GI50 [21]: 117 µM (inactive) | GI50 [22]: 0.0296 µM (active) | GI50 [24]: 0.0375 µM (active) | GI50 [25]: 0.0336 µM (active) | GI50 [26]: 0.0493 µM (active) | GI50 [27]: 4.78 µM (inactive) | GI50 [56]: 20.7 µM (inactive) | GI50 [59]: 15.9 µM (inactive) | GI50 [28]: 0.0383 µM (active) | GI50 [60]: 0.0486 µM (active) | GI50 [29]: 0.0335 µM (active) | GI50 [30]: 0.034 µM (active) | GI50 [31]: 0.0308 µM (active) | GI50 [32]: 4.86 µM (inactive) | GI50 [33]: 68.5 µM (inactive) | GI50 [61]: 192 µM (inactive) | GI50 [34]: 0.119 µM (active) | GI50 [35]: 18.4 µM (inactive) | GI50 [36]: 0.0286 µM (active) | GI50 [62]: 28 µM (inactive) | GI50 [37]: 7.21 µM (inactive) | GI50 [38]: 0.0326 µM (active) | GI50 [63]: 69.5 µM (inactive) | GI50 [39]: 0.0723 µM (active) | GI50 [40]: 0.25 µM (active) | GI50 [64]: 20 µM (inactive) | GI50 [41]: 102 µM (inactive) | GI50 [42]: 0.227 µM (active) | GI50 [43]: 2.36 µM (inactive) | GI50 [44]: 0.0356 µM (active) | GI50 [45]: 0.09 µM (active) | GI50 [65]: 0.0373 µM (active) | GI50 [46]: 0.0288 µM (active) | GI50 [47]: 0.916 µM (active) | GI50 [66]: 0.0865 µM (active) | GI50 [48]: 0.0345 µM (active) | GI50 [67]: 0.0929 µM (active) | GI50 [49]: 37.4 µM (inactive) | GI50 [50]: 0.0385 µM (active) | GI50 [68]: 0.0476 µM (active) | GI50 [51]: 0.0408 µM (active) | GI50 [52]: 20.7 µM (inactive) | GI50 [53]: 1.19 µM (inactive)
